Experimental data taken from PMC13090440, “Targeting SARS-CoV-2 main protease (3CL^pro) with Paeonia-derived phytochemicals” (In Silico Pharmacology, 2026).

Target: T1, SARS-CoV-2 3CL^pro (Severe acute respiratory syndrome coronavirus 2, UniProt P0DTD1)
T1 construct: gene rep
Experiment: fluorogenic peptide cleavage assay, continuous
Assay type: biochemical

## COc1c(-c2ccc(O)c(O)c2)oc2cc(O)cc(O)c2c1=O [3-O-methylquercetin]
  IC50: 43.9 µM
